Measured values: patent publication US20160016989A1, “Synthetic Polymers Containing Amino Acid Side Chains” (CHIMEROCHEM LLC, priority 2013, published 2016)

Key:
[1] = test system: Histidine specific antibody (polyclonal IgG ab6442 from ABCAM); assay: Native polyacrylamide gel shift with Histidine specific antibody; assay type: binding; conditions: native 12% polyacrylamide gel; compared to 20-mer polydT controls
Method: Example using monomer to produce a H-tag. Six His side chain monomers (H) as described in example 1 c2 are added during oligonucleotide synthesis to the 5′ position of a 20mer polydT, such that the final sequence is 5′HHH HHH TTT TTT TTT TTT TTT TTT TT3′. H is used at a concentration of 0.1M in acetonitrile for synthesis. The chimeric polymer is synthesized according to manufacturer's recommendations for the ABI Expedite synthesizer. After deprotection the H-tagged polydT was incubated with Histidine specific antibody (polyclonal IgG ab6442 from ABCAM). A control sample of 20-mer polydT was also incubated with the Histidine specific antibody. A native 12% polyacrylamide (20:1 acrylamide:bis) was loaded with 4 samples: 20-mer polydT, 20-mer polydT+Histidine specific antibody, His-tagged 20-mer polydT, His-tagged 20-mer polydT+Histidine specific antibody.

[2] = test system: VMCs from the left anterior descending, circumflex, and right coronary arteries; assay: Calcium signal (fluo 3 fluorescence) and contractility of single coronary artery VMCs; assay type: cell-based, rhesus monkeys; conditions: images at 1 minute and subsequent time points
Text: Single VMCs from the left anterior descending, circumflex, and right coronary arteries of adult rhesus monkeys are isolated and studied both as freshly dispersed and as primary cultures. The short-term primary cultured cells (never passaged) maintain the characteristics of the source tissue for 2 to 3 weeks, including contraction, relaxation, receptors, and membrane electrical properties. VMCs are dissociated with collagenase and protease enzymes in a potassium glutamate solution (KG) that prevents loading with Na^+, Ca2^+, or Cl^− and results in a high proportion of viable, contracting cells (Miyagawa et al, Am J Physiol 272:H2645-2654, 1997; Hermsmeyer et, Art Thromb Vasc Biol, 24:955-961, 2004). […]
Freshly dispersed or primary cultured VMCs on glass coverslips are placed in a chamber of laminar flow design on an Axiovert inverted fluorescence microscope and observed with a Zeiss Plan Neofluar 25X/0.80 water immersion objective. Fluorescence intensity is measured with high sensitivity calibrated video sensor and recorded digitally via computer acquisition and management program. […] Fluorescent images are taken at 1 minute and subsequent time points from which light intensity is equated to changes in calcium signal (fluorescence) and cell contractility.

| Compound | gel shift on addition of the Histidine specific antibody [1] | calcium signal (fluorescence) ([2]; individual VMC loaded with 3 μM fluo 3) | cell contractility ([2]; individual VMC) |
| --- | --- | --- | --- |
| 5′HHH HHH TTT TTT TTT TTT TTT TTT TT3′ [His-tagged 20-mer polydT] | gel shift |  |  |
| NC(=O)CC[C@@H]1NC(=O)[C@H](Cc2ccccc2)NC(=O)[C@H](Cc2ccc(O)cc2)NC(=O)[C@@H](N)CSSC[C@@H](C(=O)N2CCC[C@H]2C(=O)N[C@@H](CCCN=C(N)N)C(=O)NCC(N)=O)NC(=O)[C@H](CC(N)=O)NC1=O [arginine vasopressin] |  | affect | affect |
